Consider 12 compounds from patent US11827628B2, “Compositions and methods for inhibition of the JAK pathway” (Rigel Pharmaceuticals, Inc., priority 2005, dated 2023).

Assay [1] relates to up-regulation of ICAM-1 (CD54) by IFNγ in A549 lung epithelial cells. Put plainly: A549 Epithelial Line Stimulated with IFNγ (ICAM-1 surface expression, FACS). The note with it: A549 epithelial line stimulated with IFNγ; ICAM-1 expression by FACS; read-out: IC50, Example 43. It counts as cell-based, human. The essentials:
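A549 cells pre-incubated 1 h with compound (30 μM to 14 nM, 5% FBS, 0.3% DMSO), then stimulated with IFNγ (75 ng/mL) for 24 h. Surface ICAM-1 stained with APC anti-CD54 and read by flow cytometry; geometric mean of live-gated events plotted against concentration for EC50.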
A general note: In flow cytometry, cells or beads pass a laser one at a time.

For assay [2], the system named is Primary human T-cells. As to the kind of experiment: Primary Human T-Cell Proliferation Assay Stimulated with IL-2 (CellTiter-Glo). It counts as cell-based. The conditions noted are these: primary human T-cell proliferation stimulated with IL-2; read-out: IC50, Example 42. The essentials:
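Peripheral blood T-cells pre-activated with anti-CD3/anti-CD28 and IL-2 were washed free of IL-2, then cultured with compound plus IL-2 for 72 hours at 37° C, duplicate wells. Viability read as ATP by CellTiter-Glo luminescence; IC50 reported.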

Usually IC50 stands for the concentration at which inhibition is half-maximal. Take `Cc1nnc(COc2ccc(Nc3nc(Nc4cccc(S(N)(=O)=O)c4)ncc3F)cc2)o1` [Compound I-277, N2-(3-aminosulfonylphenyl)-5-fluoro-N4-[4-(5-methyl-1,3,4-oxadiazol-2-yl)methyleneoxyphenyl]-2,4-pyrimidinediamine]: the IC50 came out at 6910 nM in assay [1] and 91.5 nM in assay [2].

For the compound `Cc1nnc(COc2ccc(Nc3nc(Nc4ccc(F)c(S(N)(=O)=O)c4)ncc3F)cc2)o1` [Compound I-278, N2-(3-Aminosulfonyl-4-fluorophenyl)-5-fluoro-N4-[4-(5-methyl-1,3,4-oxadiazol-2-yl)methyleneoxyphenyl]-2,4-pyrimidinediamine], the IC50 in assay [1] is 11000 nM; in assay [2], 412 nM.

As for `N#CCc1ccc(Nc2nc(Nc3cccc(S(N)(=O)=O)c3)ncc2F)cc1` [III-4, N2-(3-Aminosulfonyl)phenyl-N4-(4-cyanomethyl)phenyl-5-fluoro-2,4-pyrimidinediamine], the IC50 in assay [1] worked out at 8370 nM; in assay [2], 171 nM.

`Cc1ccc(Nc2ncc(F)c(Nc3ccc(CC#N)cc3)n2)cc1S(N)(=O)=O` [III-7, N2-(3-Aminosulfonyl-4-methyl)phenyl-N4-(4-cyanomethyl)phenyl-5-fluoro-2,4-pyrimidinediamine]: the IC50 amounted to 12300 nM in assay [1] and 195 nM in assay [2].

For the compound `N#CCc1ccc(Nc2nc(Nc3ccc(Cl)c(S(N)(=O)=O)c3)ncc2F)cc1` [III-8, N2-(3-Aminosulfonyl-4-chloro)phenyl-N4-(4-cyanomethyl)phenyl-5-fluoro-2,4-pyrimidinediamine], the IC50 in assay [1] worked out at 14500 nM; in assay [2], 921 nM.

In the case of `COc1cc(Nc2ncc(F)c(Nc3ccc(CC#N)cc3)n2)ccc1S(N)(=O)=O` [III-9, N2-(4-Aminosulfonyl-3-methoxy)phenyl-N4-(4-cyanomethyl)phenyl-5-fluoro-2,4-pyrimidinediamine], the values for the IC50 in assay [1] and in assay [2] were 23600 nM and 1800 nM, respectively.

Consider `Cc1ccc(Nc2ncc(C)c(Nc3ccc(CCC#N)cc3)n2)cc1S(N)(=O)=O` [III-11], for which the figures for the IC50 in assay [1] and in assay [2] were 2240 nM and 46 nM, respectively.

On to `N#CCCc1ccc(Nc2nc(Nc3cccc(S(N)(=O)=O)c3)ncc2F)cc1` [III-14, N2-(3-aminosulfonylphenyl)-N4-[4-(cyanoethylene)phenyl]-5-fluoro-2,4-pyrimidinediamine], for which the half-inhibitory concentration (IC50) in assay [1] is 3600 nM; in assay [2] it was 52.6 nM.

In the case of `Cc1ccc(Nc2ncc(F)c(Nc3ccc(CCC#N)cc3)n2)cc1S(N)(=O)=O` [III-15, N2-(3-Aminosulfonyl-4-methylphenyl)-N4-[4-(cyanoethylene)phenyl]-5-fluoro-2,4-pyrimidinediamine], the IC50 in assay [1] amounted to 4660 nM; in assay [2] it was 107 nM.

For `N#CCCc1ccc(Nc2nc(Nc3ccc(F)c(S(N)(=O)=O)c3)ncc2F)cc1` [III-16, N2-(3-Aminosulfonyl-4-fluorophenyl)-N4-[4-(cyanoethylene)phenyl]-5-fluoro-2,4-pyrimidinediamine], the IC50 in assay [1] was 7240 nM; in assay [2], 342 nM.

For the compound `NS(=O)(=O)c1cccc(Nc2ncc(F)c(Nc3cccc(CNC(=O)C4CC4)c3)n2)c1` [III-39, N2-(3-aminosulfonyl)phenyl-N4-(3-cyclopropylcarbonylaminomethyl)phenyl-5-fluoro-2,4-pyrimidinediamine], the concentration for half-maximal inhibition (IC50) was found to be 4150 nM in assay [1] and 130 nM in assay [2].

As to “N2-[3-Aminosulfonyl-4-(4-methylpiperazin-1-yl)phenyl]-5-fluoro-N4-[2-fluoro-4-(5-methylisoxazol-3-yl)methyleneoxyphenyl]-2,4-pyrimidinediamine [Compound I-251]”, the values for the IC50 in assay [1] and in assay [2] were 34900 nM and 155 nM, respectively.
